Results from patent US9957263B2, “Bromodomain inhibitors” (AbbVie Inc., priority 2013, dated 2018).

Tests used:
BRD4 (BDI_K57-E168) = BRD4 (BDI_K57-E168) (Homo sapiens (Human), UniProt O60885); assay: TR-FRET bromodomain binding assay, BRD4 first bromodomain; details: His-tagged BD1, Alexa647-labeled probe 100 nM
Summary of the method: (§1)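 Competition of compound (50 μM-0.85 nM, 2% DMSO) against an Alexa647-labelled BET-inhibitor probe, 100 nM for BDI or 30 nM for BDII, on 8 nM His-BRD4 bromodomain detected by 1 nM Eu-anti-His; 20 mM sodium phosphate pH 6.0, 1 h room temperature. Normalised to unlabelled-probe controls; IC50 converted to Ki.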

BRD4 (BDII_E352-M457) = BRD4 (BDII_E352-M457) (Homo sapiens (Human), UniProt O60885); assay: TR-FRET bromodomain binding assay, BRD4 second bromodomain; details: His-tagged BD2, Alexa647-labeled probe 30 nM
Summary of the method: as §1

[1] = test system: breast cancer cell line MX-1; assay: MX-1 cell line proliferation assay, Method B; format: cell-based; details: Homo sapiens, MX1; MX-1 cells, 384-well, 72 hours, Cell Titer Glo; read-out: Cellular proliferation: EC50 Method B
Method: The impact of compounds of the Examples on cancer cell proliferation was determined using the breast cancer cell line MX-1 (ATCC) in a 3-day proliferation assay and the data are reported in Table 1.
Method B: MX-1 cells were maintained in RPMI 1640 medium (Sigma) supplemented with 10% FBS at 37 C.° and an atmosphere of 5% CO2. For compound testing, MX-1 cells were plated in 384-well white with clear, flat bottom plates at a density of 750 cells/well in 25 μL of culture media and incubated at 370 overnight to allow cell adhesion and spreading. Ten point compound dilution series were prepared in DMSO via a 3-fold serial dilution from either […] or 1 μM stock and added directly to the appropriate wells of the MX-1 cell plate by an ECHO liquid handler (Labcyte). The final compound concentrations in the wells were 10, 3.25, 1, 0.25, 0.124, 0.040, 0.0124, 0.0031, 0.0015 and 0.0005 μM or 1, 0.33, 0.1, 0.025, 0.0124, 0.004, 0.0012, 0.0003, 0.00015, 0.00005 μM, depending on the concentration of the compound stock solution.
Luminescence readings from the Cell Titer Glo assay were normalized to the DMSO treated cells and analyzed using Accelrys Assay Explorer 3.3 software with sigmoidal curve fitting to obtain ECsos. The minimum significant ratio (MSR) was determined to evaluate assay reproducibility (Eastwood et al., (2006) J Biomol Screen, 11: 253-261). The overall MSR was determined to be 3.3 and a moving MSR (last six run MSR overtime) has averaged

Structure (SMILES)	Ki (BRD4 (BDI_K57-E168)) [nM]	Ki (BRD4 (BDII_E352-M457)) [nM]	EC50 [1] [nM]
CCNC(=O)c1cc2c(-c3cc(S(=O)(=O)CC)ccc3Oc3c(C)cccc3CN3CCCS3(=O)=O)cn(C)c(=O)c2[nH]1 [Example 152, 4-[2-{2-[(1,1-dioxido-1,2-thiazolidin-2-yl)methyl]-6-methylphenoxy}-5-(ethylsulfonyl)phenyl]-N-ethyl-6-methyl-7-oxo-6,7-dihydro-1H-pyrrolo[2,3-c]pyridine-2-carboxamide]	2080	36	
CN(C)C(=O)C1(N2CCCC2=O)CCN(Cc2cc3c(-c4cc(S(C)(=O)=O)ccc4Oc4ccc(F)cc4F)cn(C)c(=O)c3[nH]2)CC1 [Example 155, 1-({4-[2-(2,4-difluorophenoxy)-5-(methylsulfonyl)phenyl]-6-methyl-7-oxo-6,7-dihydro-1H-pyrrolo[2,3-c]pyridin-2-yl}methyl)-N,N-dimethyl-4-(2-oxopyrrolidin-1-yl)piperidine-4-carboxamide]	23.7	364	
Cn1cc(-c2cc(S(C)(=O)=O)ccc2Oc2ccc(F)cc2F)c2cc(CN3CC(n4cncn4)C3)[nH]c2c1=O [Example 156, 4-[2-(2,4-difluorophenoxy)-5-(methylsulfonyl)phenyl]-6-methyl-2-{[3-(1H-1,2,4-triazol-1-yl)azetidin-1-yl]methyl}-1,6-dihydro-7H-pyrrolo[2,3-c]pyridin-7-one]	26.8	42.3	
CCNC(=O)c1cc2c(-c3cc(S(=O)(=O)CC)ccc3Oc3c(C)cccc3CN3CCC3=O)cn(C)c(=O)c2[nH]1 [Example 157, N-ethyl-4-[5-(ethylsulfonyl)-2-{2-methyl-6-[(2-oxoazetidin-1-yl)methyl]phenoxy}phenyl]-6-methyl-7-oxo-6,7-dihydro-1H-pyrrolo[2,3-c]pyridine-2-carboxamide]	387	16.9	
CCNC(=O)c1cc2c(-c3cc(S(=O)(=O)CC)ccc3Oc3c(C)cccc3Cn3ccccc3=O)cn(C)c(=O)c2[nH]1 [Example 158, N-ethyl-4-[5-(ethylsulfonyl)-2-{2-methyl-6-[(2-oxopyridin-1(2H)-yl)methyl]phenoxy}phenyl]-6-methyl-7-oxo-6,7-dihydro-1H-pyrrolo[2,3-c]pyridine-2-carboxamide]	883	28.5	
Cn1cc(-c2cc(S(C)(=O)=O)ccc2Oc2ccc(F)cc2F)c2cc(CNCCC(N)=O)[nH]c2c1=O [Example 159, 3-[({4-[2-(2,4-difluorophenoxy)-5-(methylsulfonyl)phenyl]-6-methyl-7-oxo-6,7-dihydro-1H-pyrrolo[2,3-c]pyridin-2-yl}methyl)amino]propanamide]	230	156	
CCNC(=O)c1cc2c(-c3ccc(C(=O)N(CCN4CCSCC4)c4ccc(Cl)c(Cl)c4)cc3Oc3c(C)cccc3C)cn(C)c(=O)c2[nH]1 [Example 162, 4-[4-{(3,4-dichlorophenyl)[2-(thiomorpholin-4-yl)ethyl]carbamoyl}-2-(2,6-dimethylphenoxy)phenyl]-N-ethyl-6-methyl-7-oxo-6,7-dihydro-1H-pyrrolo[2,3-c]pyridine-2-carboxamide]	> 12700	88.6	
CCNC(=O)c1cc2c(-c3cc(S(=O)(=O)CC)ccc3Oc3c(C)cccc3CCC3CCCC3)cn(C)c(=O)c2[nH]1 [Example 164, 4-{2-[2-(2-cyclopentylethyl)-6-methylphenoxy]-5-(ethylsulfonyl)phenyl}-N-ethyl-6-methyl-7-oxo-6,7-dihydro-1H-pyrrolo[2,3-c]pyridine-2-carboxamide]		15.1	10000
CCNC(=O)c1cc2c(-c3ccc(C(=O)N(CC#N)C(C)Cc4ccccc4)cc3Oc3c(C)cccc3C)cn(C)c(=O)c2[nH]1 (stereo not shown) [Example 166, 4-{4-[(cyanomethyl)(1-phenylpropan-2-yl)carbamoyl]-2-(2,6-dimethylphenoxy)phenyl}-N-ethyl-6-methyl-7-oxo-6,7-dihydro-1H-pyrrolo[2,3-c]pyridine-2-carboxamide]	> 12700	17.5	3030
CCNC(=O)c1cc2c(-c3ccc(C(=O)N(CC#N)CC(C)c4ccccc4)cc3Oc3c(C)cccc3C)cn(C)c(=O)c2[nH]1 (stereo not shown) [Example 167, 4-{4-[(cyanomethyl)(2-phenylpropyl)carbamoyl]-2-(2,6-dimethylphenoxy)phenyl}-N-ethyl-6-methyl-7-oxo-6,7-dihydro-1H-pyrrolo[2,3-c]pyridine-2-carboxamide]	> 12700	34.4	2020
CCNC(=O)c1cc2c(-c3ccc(C(=O)N(CC#N)c4cccc(Cl)c4)cc3Oc3c(C)cccc3C)cn(C)c(=O)c2[nH]1 [Example 168, 4-{4-[(3-chlorophenyl)(cyanomethyl)carbamoyl]-2-(2,6-dimethylphenoxy)phenyl}-N-ethyl-6-methyl-7-oxo-6,7-dihydro-1H-pyrrolo[2,3-c]pyridine-2-carboxamide]	2310	22.3	3060
CCNC(=O)c1cc2c(-c3ccc(C(=O)N(CC#N)c4ccc(Cl)cc4)cc3Oc3c(C)cccc3C)cn(C)c(=O)c2[nH]1 [Example 169, 4-{4-[(4-chlorophenyl)(cyanomethyl)carbamoyl]-2-(2,6-dimethylphenoxy)phenyl}-N-ethyl-6-methyl-7-oxo-6,7-dihydro-1H-pyrrolo[2,3-c]pyridine-2-carboxamide]	1400	27.8	2170

Stronger by Ki (BRD4 (BDII_E352-M457)), values ahead:

Ki (BRD4 (BDI_K57-E168)) [nM]	Ki (BRD4 (BDII_E352-M457)) [nM]	EC50 [1] [nM]	Structure (SMILES)
813	9.95		CCNC(=O)c1cc2c(-c3cc(S(=O)(=O)CC)ccc3Oc3c(C)cccc3CN3CCCC3=O)cn(C)c(=O)c2[nH]1 [Example 151, N-ethyl-4-[5-(ethylsulfonyl)-2-{2-methyl-6-[(2-oxopyrrolidin-1-yl)methyl]phenoxy}phenyl]-6-methyl-7-oxo-6,7-dihydro-1H-pyrrolo[2,3-c]pyridine-2-carboxamide]
1040	2.61		CCNC(=O)c1cc2c(-c3ccc(C(=O)N(CC(=O)NC)Cc4ccccn4)cc3Oc3c(C)cccc3C)cn(C)c(=O)c2[nH]1 [Example 153, 4-[2-(2,6-dimethylphenoxy)-4-{[2-(methylamino)-2-oxoethyl](pyridin-2-ylmethyl)carbamoyl}phenyl]-N-ethyl-6-methyl-7-oxo-6,7-dihydro-1H-pyrrolo[2,3-c]pyridine-2-carboxamide]
1040	13.7		CCNC(=O)c1cc2c(-c3ccc(C(=O)N(C)C4CCN(OC(=O)CC)CC4)cc3Oc3c(C)cccc3C)cn(C)c(=O)c2[nH]1 [Example 154, 4-[2-(2,6-dimethylphenoxy)-4-{methyl[1-(propanoyloxy)piperidin-4-yl]carbamoyl}phenyl]-N-ethyl-6-methyl-7-oxo-6,7-dihydro-1H-pyrrolo[2,3-c]pyridine-2-carboxamide]
1710	9.99		CCNC(=O)c1cc2c(-c3ccc(C(=O)N(CCC(=O)OC)c4ccccc4)cc3Oc3c(C)cccc3C)cn(C)c(=O)c2[nH]1 [Example 160, methyl 3-[{3-(2,6-dimethylphenoxy)-4-[2-(ethylcarbamoyl)-6-methyl-7-oxo-6,7-dihydro-1H-pyrrolo[2,3-c]pyridin-4-yl]benzoyl}(phenyl)amino]propanoate]
1050	3.16		CCNC(=O)c1cc2c(-c3ccc(C(=O)N(CCCN4CCOCC4)Cc4ccccc4)cc3Oc3c(C)cccc3C)cn(C)c(=O)c2[nH]1 [Example 161, 4-[4-{benzyl[3-(morpholin-4-yl)propyl]carbamoyl}-2-(2,6-dimethylphenoxy)phenyl]-N-ethyl-6-methyl-7-oxo-6,7-dihydro-1H-pyrrolo[2,3-c]pyridine-2-carboxamide]
1.64	0.605		CCS(=O)(=O)Nc1ccc(Oc2ccc(F)cc2F)c(-c2cn(C)c(=O)c3[nH]c(C#CCOC)cc23)c1 [Example 163, N-{4-(2,4-difluorophenoxy)-3-[2-(3-methoxyprop-1-yn-1-yl)-6-methyl-7-oxo-6,7-dihydro-1H-pyrrolo[2,3-c]pyridin-4-yl]phenyl}ethanesulfonamide]
429	4.48	1460	CCNC(=O)c1cc2c(-c3ccc(C(=O)N(CCCN4CCCC4)C(C)Cc4ccccc4)cc3Oc3c(C)cccc3C)cn(C)c(=O)c2[nH]1 (stereo not shown) [Example 165, 4-[2-(2,6-dimethylphenoxy)-4-{(1-phenylpropan-2-yl) [3-(pyrrolidin-1-yl)propyl]carbamoyl}phenyl]-N-ethyl-6-methyl-7-oxo-6,7-dihydro-1H-pyrrolo[2,3-c]pyridine-2-carboxamide]
